# US6013244A, “21-(2-oxo-tetrahydrofuran)-thio pregnane derivatives, a process for their production and pharmaceutical compositions containing them” (Glaxo Wellcome Inc., priority 1995, dated 2000)
# What was measured:
# [1] = test system: lung eosinophilia; test: Inhibition of lung eosinophilia in Brown Norway rats; type: in vivo; conditions: OVA-sensitised male Brown Norway rats, lung lavage on day 16
# Description: (i) Anti-inflammatory Activity--Inhibition of lung eosinophilia in Brown Norway rats
# Male Brown norway rats (150-180 g) are sensitised with 1 ml intra-peritoneally (ip) containing 10 mg Al (OH)3 +1 mg Ovalbumin (OVA) on day 1. On day 7 each rat received 1 ml ip containing 10 mg Al(OH)3 +100 ug OVA. On day 14, each rat received an intratracheal (IT) dose of compound or vehicle (0.2 ml), under isoflurane anaesthesia. Compounds are suspended in 0.9% saline/0.2% Tween 80. 4 h after compound administration, each animal receives 400 ug OVA in saline IT (0.2 ml). On day 16, animals are killed and the lungs lavaged with 5 mls of lavage fluid (10 mM EDTA, phosphate buffered saline (pH 7.4), 5 units heparin/ml, 0.1% BSA). The samples are centrifuged at 1000 RPM for 10 minutes. The supernatant is removed and the cells resuspended in 0.5 ml lavage fluid. Total cells are counted with a Sysmex counter. Cytospin slides are prepared using 75 ul of the cell suspension and the cells are stained with May-Grunwald stain. Differential cell counts are performed using a microscope. Numbers of eosinophils are calculated per ul of lavage fluid per rat allowing percentage reduction in eosinophilia to be calculated.
# [2] = test system: Adrenocorticotrophic hormone (ACTH); test: Systemic Effects - ACTH Suppression in Adrenalectomised Rats; type: in vivo; conditions: adrenalectomised male CD rats, plasma
# Description: (II) Systemic Effects--ACTH Suppression in Adrenalectomised Rats
# Male CD rats (90-120 g) were adrenalectomised under Isoflurane anaesthesia and drinking water was supplemented with 0.9% saline. Four days later the animals receive a single intravenous dose of compound dissolved in DMA/PEG-200/distilled water (1:6:3) (0.2 ml) at 10 am. At 2 h and 4 h afterwards animals are sacrificed by administration of Euthetal and blood samples are taken by intra-cardiac puncture and collected into heparinised tubes. The samples are centrifuged (20 minutes at 1000 RPM at 4 deg C), the plasma is collected and assayed by Radioimmunoassay (RIA) for Adrenocorticotrophic hormone (ACTH) using a DPC double antibody RIA kit. Intact and vehicle control groups for each time point assessed were included in each experiment in order to account for diurnal variation in ACTH and effects of vehicle. Results are calculated with respect to the RIA standard curve and expressed as ACTH pg/ml plasma, allowing percentage reduction in ACTH to be calculated.
# [3] = target: T1, Human Glucocorticoid Receptor (Homo sapiens, UniProt P04150); test: functional in vitro glucocorticoid assay, MMTV-sPAP reporter gene in transfected Hela cells; type: cell-based
# T1 construct: endogenous in cells; host or cells: HeLa cells stably transfected with the MMTV-LTR/sPAP reporter
# T1 sequence (P04150 1-777): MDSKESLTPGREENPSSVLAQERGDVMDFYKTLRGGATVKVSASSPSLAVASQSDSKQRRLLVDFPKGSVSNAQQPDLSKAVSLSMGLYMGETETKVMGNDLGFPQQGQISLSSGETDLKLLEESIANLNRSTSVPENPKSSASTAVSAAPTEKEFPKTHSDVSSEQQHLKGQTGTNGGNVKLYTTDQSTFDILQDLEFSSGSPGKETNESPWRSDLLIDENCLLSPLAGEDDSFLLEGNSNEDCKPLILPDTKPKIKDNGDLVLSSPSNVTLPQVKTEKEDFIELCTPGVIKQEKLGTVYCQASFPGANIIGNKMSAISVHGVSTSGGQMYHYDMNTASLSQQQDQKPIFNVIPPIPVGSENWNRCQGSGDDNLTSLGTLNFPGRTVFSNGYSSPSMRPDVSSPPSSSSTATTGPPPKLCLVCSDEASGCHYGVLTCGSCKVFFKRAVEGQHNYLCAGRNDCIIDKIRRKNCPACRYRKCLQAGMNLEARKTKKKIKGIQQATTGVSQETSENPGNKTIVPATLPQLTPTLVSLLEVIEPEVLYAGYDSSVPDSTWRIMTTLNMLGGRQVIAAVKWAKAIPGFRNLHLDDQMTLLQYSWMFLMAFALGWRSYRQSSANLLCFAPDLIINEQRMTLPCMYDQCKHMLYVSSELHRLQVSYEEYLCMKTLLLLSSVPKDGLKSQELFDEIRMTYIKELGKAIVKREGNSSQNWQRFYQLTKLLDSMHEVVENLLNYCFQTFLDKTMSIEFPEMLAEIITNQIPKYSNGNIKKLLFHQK
# Description: The functional assay used was a modification of the method described by T. S Berger et al, of J. of Steroid Biochem. Molec.
# Thus, Hela cells were stably transfected with a detectable reporter gene (secreted placental alkaline phosphatase, sPAP) under the control of a glucocorticoid response promoter (the LTR of the mouse mammary tumour virus, MMTV). Various concentrations of standard (dexamethasone) or compounds of the invention were incubated with transfected Hela cells for 72 hours. At the end of the incubation, substrate ([…]) for sPAP was added and the product measured by a spectrophotometric method. Increased absorbance reflected increased sPAP transcription and concentration-response lines were constructed such that EC50 -values could be estimated.
# [4] = dose 6.25 μg single intravenous
SMILES,EC50 [3],also measured
"CC1(C)O[C@@H]2C[C@H]3[C@@H]4C[C@H](F)C5=CC(=O)C=C[C@]5(C)[C@@]4(F)[C@@H](O)C[C@]3(C)[C@]2(C(=O)CS[C@H]2CCOC2=O)O1 (single isomer, unassigned) [Example 3 Isomer A, 6α,9α-Difluoro-11β-hydroxy-16α,17α-isopropylidenedioxy-21-(2-oxo-tetrahydro-furan-3S-yl-sulfanyl)-pregna-1,4-diene-3,20-dione]",–,% Reduction in Eosinophilia ([1]; dose 250 μg intratracheal): 74%; % Reduction in Eosinophilia ([1]; dose 750 μg intratracheal): 97%; % Reduction in ACTH at 2 h ([2]; dose 500 μg single intravenous): 16%; % Reduction in ACTH at 4 h ([2]; dose 500 μg single intravenous): 15%
"CCCC1O[C@@H]2C[C@H]3[C@@H]4CCC5=CC(=O)C=C[C@]5(C)[C@H]4[C@@H](O)C[C@]3(C)[C@]2(C(=O)CSC2CCOC2=O)O1 (single isomer, unassigned) [Example 9 isomer A, 16α,17α-Butylidenedioxy-11β-hydroxy-21-(2-oxo-tetrahydrofuran-3-yl-sulfanyl)-pregna-1,4-diene-3,20-dione]",< 600 nM,–
"CCCC1O[C@@H]2C[C@H]3[C@@H]4CCC5=CC(=O)C=C[C@]5(C)[C@H]4[C@@H](O)C[C@]3(C)[C@]2(C(=O)CO)O1 (stereo partly drawn) [Budesonide, reference compound]",–,"% Reduction in Eosinophilia ([1]; dose 250 μg intratracheal): 82%; % Reduction in ACTH at 2 h [2, 4]: 61%; % Reduction in ACTH at 4 h [2, 4]: 32%"
"CCC(=O)O[C@]1(C(=O)CSC2CCOC2=O)[C@H](C)C[C@H]2[C@@H]3C[C@H](F)C4=CC(=O)C=C[C@]4(C)[C@@]3(F)[C@@H](O)C[C@@]21C (stereo partly drawn) [Example 1, 6α,9α-Difluoro-11β-hydroxy-16α-methyl-21-(2-oxo-tetrahydro-furan-3-yl-sulfanyl)-17α-propionyloxy-pregna-1,4-diene-3,20-dione]",< 600 nM,–
"CCC(=O)O[C@]1(C(=O)CSC2CCOC2=O)[C@H](C)C[C@H]2[C@@H]3C[C@H](F)C4=CC(=O)CC[C@]4(C)[C@@]3(F)[C@@H](O)C[C@@]21C (stereo partly drawn) [Example 2, 6α,9α-Difluoro-11β-hydroxy-16α-methyl-21-(2-oxo-tetrahydro-furan-3-yl-sulfanyl)-17α-propionyloxy-pregn-4-ene-3,20-dione]",< 600 nM,–
"CC1(C)O[C@@H]2C[C@H]3[C@@H]4C[C@H](F)C5=CC(=O)CC[C@]5(C)[C@@]4(F)[C@@H](O)C[C@]3(C)[C@]2(C(=O)CSC2CCOC2=O)O1 (stereo partly drawn) [Example 6, 6α,9α-Difluoro-11β-hydroxy-16α,17α-isopropylidenedioxy-21-(2-oxo-tetrahydro-furan-3-yl-sulfanyl)-pregn-4-ene-3,20-dione]",< 600 nM,–
"CCC[C@@H]1O[C@@H]2C[C@H]3[C@@H]4C[C@H](F)C5=CC(=O)C=C[C@]5(C)[C@@]4(F)[C@@H](O)C[C@]3(C)[C@]2(C(=O)CSC2CCOC2=O)O1 (stereo partly drawn) [Example 7, 16α,17α-(R-Butylidenedioxy)-6α,9α-difluoro-11β-hydroxy-21-(2-oxo-tetrahydro-furan-3-yl-sulfanyl)-pregna-1,4-diene-3,20-dione]",< 600 nM,–
"CCC[C@@H]1O[C@@H]2C[C@H]3[C@@H]4C[C@H](F)C5=CC(=O)CC[C@]5(C)[C@@]4(F)[C@@H](O)C[C@]3(C)[C@]2(C(=O)CSC2CCOC2=O)O1 (stereo partly drawn) [Example 8, 16α,17α-(R-Butylidenedioxy)-6α,9α-difluoro-11β-hydroxy-21-(2-oxo-tetrahydro-furan-3-yl-sulfanyl)-pregn-4-ene-3,20-dione]",< 600 nM,–
"CC1(C)O[C@@H]2C[C@H]3[C@@H]4C[C@H](F)C5=CC(=O)C=C[C@]5(C)[C@@]4(F)[C@@H](O)C[C@]3(C)[C@]2(C(=O)CSC2COC(=O)C2)O1 (stereo partly drawn) [Example 10, 6α,9α-Difluoro-11β-hydroxy-16α,17α-isopropylidenedioxy-21-(2-oxo-tetrahydro-furan4-yl-sulfanyl)-pregna-1,4-diene-3,20-dione]",< 600 nM,–
"CCC[C@@H]1O[C@@H]2C[C@H]3[C@@H]4C[C@H](F)C5=CC(=O)CC[C@]5(C)[C@@]4(F)[C@@H](O)C[C@]3(C)[C@]2(C(=O)CSC2COC(=O)C2)O1 (stereo partly drawn) [Example 11, 16α,17α-(R-Butylidenedioxy)-6α,9α-difluoro-11β-hydroxy-21-(2-oxo-tetrahydro-furan-4-yl-sulfanyl)-pregn-4-ene-3,20-dione]",< 600 nM,–
